Literature values as cited in US20090214716A1 (priority 2005, published 2009).

How the values were obtained:
[1] = caffeine 0.3 mg/kg/hr vs placebo
[2] = target: T1, A2A receptors that are located on the platelet surface (Homo sapiens, UniProt P29274); conditions: chronic caffeine consumption
T1 construct: up-regulation of endogenous adenosine receptors in normal subjects; host or cells: human platelets of normal subjects (endogenous)
T1 sequence (P29274 whole entry): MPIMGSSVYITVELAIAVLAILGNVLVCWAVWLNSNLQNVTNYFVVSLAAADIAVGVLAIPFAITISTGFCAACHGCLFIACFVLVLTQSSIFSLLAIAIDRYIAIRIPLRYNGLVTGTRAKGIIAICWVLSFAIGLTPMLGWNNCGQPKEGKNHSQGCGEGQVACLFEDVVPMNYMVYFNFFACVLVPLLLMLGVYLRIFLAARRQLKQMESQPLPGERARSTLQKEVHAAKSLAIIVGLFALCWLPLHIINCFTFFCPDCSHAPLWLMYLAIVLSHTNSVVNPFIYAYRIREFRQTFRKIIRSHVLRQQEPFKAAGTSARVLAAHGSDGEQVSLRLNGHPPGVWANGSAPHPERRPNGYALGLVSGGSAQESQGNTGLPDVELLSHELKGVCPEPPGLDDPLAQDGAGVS

Question: With `Cn1c(=O)c2c(ncn2C)n(C)c1=O` [caffeine, 1,3,7-trimethylxanthine] as the compound, how does the “performance on cognitive tests” value [1] read?
Answer: performed better on cognitive tests

Question: What about the reported sleepiness [1] of the same compound?
Answer: reported feeling sleepier than their placebo counterparts

Question: And the platelet aggregability [2]?
Answer: reduction in platelet aggregability

Question: And the “effect on endogenous adenosine receptors” value ([2]; normal subjects)?
Answer: sensitization and/or up-regulation of endogenous adenosine receptors
